Columns and labels:
TRKA = target: T1, TRKA (Homo sapiens, UniProt P04629); assay: Z′-LYTE kinase activity assay, TRKA; format: biochemical; conditions: ATP 400 uM
T1 construct: purchased life technologies PV3144
From the text: (§1) Kinase activity assay: Z′-LYTE™ technology (detection by fluorescence, enzyme-conjugated format, based on the difference in sensitivity of phosphorylated and non-phosphorylated peptides to proteolytic cleavage) was applied, and using the principle of fluorescence resonance energy transfer (FRET), a Z′-LYTE™ FRET peptide substrate (Z′-LYTE™ Tyrosine 1 Peptide Substrate, Invitrogen, PV3190), and a secondary reaction were used to detect the inhibitory activity of the compounds on TRKs (TRK1, TRK2, TRK3) (life technologies, PV3144, PV3616, PV3617).
(§2) Enzymatic reaction: In a 384-well plate, 5 μL of an enzyme-substrate system (50 mM HEPES pH 7.5, 0.01% BRIJ-35, 10 mM MgCl2, 1 mM EGTA, 2 μM Tyr 01 Peptide Substrate) was added and 5 nL of compound (concentration gradient) was transferred thereto by using the echo520 ultramicro liquid pipetting system. […] After shaking and mixing, centrifuging was performed. A reaction was carried out at 30° C. in the dark for 1.5 hours.
(§3) The data were analyzed as follows:
(§4) Phosphorylation ratio=1−{(emission ratio×F100%−C100%)/[C0%−C100%+emission ratio×(F100%−F0%)]}×100;
(§5) Inhibition rate=100×(1−compound phosphorylation ratio/negative control phosphorylation ratio).
(§6) IC50 values were calculated by using GraphPad Prism 5.0 software.

TRKB = target: T2, TRKB (Homo sapiens, UniProt Q16620); assay: Z′-LYTE kinase activity assay, TRKB; format: biochemical; conditions: ATP 25 uM
T2 construct: purchased life technologies PV3616
From the text: as §1, §2, §3, §4, §5, §6

TRKC = target: T3, TRKC (Homo sapiens, UniProt Q16288); assay: Z′-LYTE kinase activity assay, TRKC; format: biochemical; conditions: ATP 50 uM
T3 construct: purchased life technologies PV3617
From the text: as §1, §2, §3, §6

BaF3-CD74-NTRK1 = target: T4, BaF3-CD74-NTRK1 (Homo sapiens, UniProt P04629); assay: Cell proliferation inhibition (CCK-8), BaF3-CD74-NTRK1 stable strain; format: cell-based, mouse; conditions: BaF3-CD74-NTRK1, 72 hours
T4 construct: fused on or other part: P04233 (HLA class II histocompatibility antigen gamma chain)
Procedure, shortened: (§7)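 Ba/F3 cells stably electroporated with ETV6-NTRK3, CD74-NTRK1 or ETV6-NTRK2, selected with G418 and grown without IL3, then cloned by limiting dilution.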

BaF3-ETV6-NTRK2 = target: T5, BaF3-ETV6-NTRK2 (Homo sapiens, UniProt Q16620); assay: Cell proliferation inhibition (CCK-8), BaF3-ETV6-NTRK2 stable strain; format: cell-based, mouse; conditions: BaF3-ETV6-NTRK2, 72 hours
T5 construct: fused on or other part: P41212 (Transcription factor ETV6)
Procedure, shortened: as §7

BaF3-ETV6-NTRK3 = target: T6, BaF3-ETV6-NTRK3 (Homo sapiens, UniProt Q16288); assay: Cell proliferation inhibition (CCK-8), BaF3-ETV6-NTRK3 stable strain; format: cell-based, mouse; conditions: BaF3-ETV6-NTRK3, 72 hours
T6 construct: fused on or other part: P41212 (Transcription factor ETV6)
Procedure, shortened: as §7

T3 sequence (Q16288 32-839): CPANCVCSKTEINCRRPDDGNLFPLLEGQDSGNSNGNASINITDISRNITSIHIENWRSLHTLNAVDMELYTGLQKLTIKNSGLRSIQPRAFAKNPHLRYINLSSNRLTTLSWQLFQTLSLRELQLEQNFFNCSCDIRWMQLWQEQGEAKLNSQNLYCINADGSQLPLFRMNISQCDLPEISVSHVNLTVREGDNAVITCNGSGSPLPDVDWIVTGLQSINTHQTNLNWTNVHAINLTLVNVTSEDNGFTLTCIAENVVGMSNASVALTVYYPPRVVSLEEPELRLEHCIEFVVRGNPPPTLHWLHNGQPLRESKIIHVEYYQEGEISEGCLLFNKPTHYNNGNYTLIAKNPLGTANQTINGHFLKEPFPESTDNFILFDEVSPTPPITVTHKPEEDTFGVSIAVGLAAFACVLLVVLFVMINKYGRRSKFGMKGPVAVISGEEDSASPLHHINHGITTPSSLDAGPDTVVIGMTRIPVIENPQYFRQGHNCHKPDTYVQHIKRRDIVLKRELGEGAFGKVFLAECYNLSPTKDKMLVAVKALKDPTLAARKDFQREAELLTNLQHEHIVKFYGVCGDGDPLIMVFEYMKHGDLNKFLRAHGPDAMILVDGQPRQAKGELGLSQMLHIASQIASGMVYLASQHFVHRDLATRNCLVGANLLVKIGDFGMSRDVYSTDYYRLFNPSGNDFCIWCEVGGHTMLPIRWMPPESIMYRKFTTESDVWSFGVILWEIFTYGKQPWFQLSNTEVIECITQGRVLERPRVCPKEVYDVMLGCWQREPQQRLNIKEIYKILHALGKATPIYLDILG
T4 sequence (P04629 510-796 limits assumed): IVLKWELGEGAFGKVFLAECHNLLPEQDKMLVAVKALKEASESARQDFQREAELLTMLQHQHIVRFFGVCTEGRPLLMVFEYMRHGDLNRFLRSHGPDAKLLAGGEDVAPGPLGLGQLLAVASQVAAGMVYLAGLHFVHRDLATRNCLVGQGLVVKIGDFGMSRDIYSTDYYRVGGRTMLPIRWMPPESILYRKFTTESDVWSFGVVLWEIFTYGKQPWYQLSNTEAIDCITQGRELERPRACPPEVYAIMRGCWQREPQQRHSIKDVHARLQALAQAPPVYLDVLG
T5 sequence (Q16620 538-822 limits assumed): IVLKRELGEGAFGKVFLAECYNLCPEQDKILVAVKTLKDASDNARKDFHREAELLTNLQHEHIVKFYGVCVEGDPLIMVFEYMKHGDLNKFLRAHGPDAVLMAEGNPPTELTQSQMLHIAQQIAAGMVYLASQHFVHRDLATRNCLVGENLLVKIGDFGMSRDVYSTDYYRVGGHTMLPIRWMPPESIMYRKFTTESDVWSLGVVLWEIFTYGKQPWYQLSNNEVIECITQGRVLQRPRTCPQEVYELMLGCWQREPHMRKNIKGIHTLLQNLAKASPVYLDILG
T1 sequence (P04629 440-796 limits assumed): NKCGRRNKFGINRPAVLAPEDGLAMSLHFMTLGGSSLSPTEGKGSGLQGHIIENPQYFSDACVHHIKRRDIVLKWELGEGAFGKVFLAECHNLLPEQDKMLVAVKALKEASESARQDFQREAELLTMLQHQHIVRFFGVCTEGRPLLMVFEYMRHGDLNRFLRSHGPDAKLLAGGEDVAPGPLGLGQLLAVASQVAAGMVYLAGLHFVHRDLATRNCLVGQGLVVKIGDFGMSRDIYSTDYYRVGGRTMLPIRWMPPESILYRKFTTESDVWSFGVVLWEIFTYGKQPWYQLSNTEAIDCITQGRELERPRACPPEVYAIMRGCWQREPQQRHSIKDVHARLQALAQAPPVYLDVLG
T2 sequence (Q16620 32-822): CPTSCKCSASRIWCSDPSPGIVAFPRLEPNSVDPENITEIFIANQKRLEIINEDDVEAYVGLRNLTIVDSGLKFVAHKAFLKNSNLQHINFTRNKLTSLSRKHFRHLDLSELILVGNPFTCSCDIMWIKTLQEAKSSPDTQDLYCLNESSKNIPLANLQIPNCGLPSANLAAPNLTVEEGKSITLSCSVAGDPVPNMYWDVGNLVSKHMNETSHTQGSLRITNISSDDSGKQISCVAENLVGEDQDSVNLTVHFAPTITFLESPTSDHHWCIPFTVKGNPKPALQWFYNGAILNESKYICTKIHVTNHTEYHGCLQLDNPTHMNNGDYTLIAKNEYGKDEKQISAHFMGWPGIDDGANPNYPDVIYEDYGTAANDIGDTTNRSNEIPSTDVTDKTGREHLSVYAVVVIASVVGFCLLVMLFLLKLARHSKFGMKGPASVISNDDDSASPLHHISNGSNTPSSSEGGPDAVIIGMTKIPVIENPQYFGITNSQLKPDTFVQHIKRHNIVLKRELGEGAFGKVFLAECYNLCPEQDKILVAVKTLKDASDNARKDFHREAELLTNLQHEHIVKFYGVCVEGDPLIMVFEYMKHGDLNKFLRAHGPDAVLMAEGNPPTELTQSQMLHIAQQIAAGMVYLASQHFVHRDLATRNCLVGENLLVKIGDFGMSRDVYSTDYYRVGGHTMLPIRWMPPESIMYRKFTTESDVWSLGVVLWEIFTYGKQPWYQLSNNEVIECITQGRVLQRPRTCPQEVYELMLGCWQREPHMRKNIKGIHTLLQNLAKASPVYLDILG
T6 sequence (Q16288 whole entry, the tested form may be a part): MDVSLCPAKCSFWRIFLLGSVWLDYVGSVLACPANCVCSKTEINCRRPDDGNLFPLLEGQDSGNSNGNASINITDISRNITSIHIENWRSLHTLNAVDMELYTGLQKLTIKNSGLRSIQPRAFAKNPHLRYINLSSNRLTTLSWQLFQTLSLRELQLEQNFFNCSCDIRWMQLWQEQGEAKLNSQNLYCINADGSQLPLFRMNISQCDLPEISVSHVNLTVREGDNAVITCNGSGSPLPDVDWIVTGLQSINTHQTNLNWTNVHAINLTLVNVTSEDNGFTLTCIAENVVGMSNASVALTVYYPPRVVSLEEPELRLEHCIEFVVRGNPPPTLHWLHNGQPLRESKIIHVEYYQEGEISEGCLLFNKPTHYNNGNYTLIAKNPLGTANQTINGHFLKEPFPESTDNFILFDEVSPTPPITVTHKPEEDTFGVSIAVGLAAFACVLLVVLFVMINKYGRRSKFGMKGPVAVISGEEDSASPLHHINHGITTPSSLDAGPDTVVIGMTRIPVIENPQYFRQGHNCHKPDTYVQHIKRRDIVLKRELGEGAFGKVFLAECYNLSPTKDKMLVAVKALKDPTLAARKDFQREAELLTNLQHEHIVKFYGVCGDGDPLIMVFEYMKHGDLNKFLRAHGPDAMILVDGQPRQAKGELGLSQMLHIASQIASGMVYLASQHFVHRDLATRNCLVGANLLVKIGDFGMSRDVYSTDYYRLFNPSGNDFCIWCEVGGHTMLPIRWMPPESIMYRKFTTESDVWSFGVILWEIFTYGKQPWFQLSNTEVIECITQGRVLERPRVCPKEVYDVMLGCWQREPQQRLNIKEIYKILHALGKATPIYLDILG

SMILES: Fc1cc(F)cc(-c2ccc3[nH]nc(C#Cc4ccccn4)c3c2)c1 [DYX-115, 5-(3,5-difluorophenyl)-3-(pyridin-2-ylethynyl)-1H-indazole]
- IC50 (TRKA): > 1 µM
- IC50 (TRKB): > 1 µM
- IC50 (TRKC): > 1 µM
- IC50 (BaF3-CD74-NTRK1): > 10 µM
- IC50 (BaF3-ETV6-NTRK2): > 10 µM
- IC50 (BaF3-ETV6-NTRK3): > 10 µM

SMILES: Fc1cc(F)cc(-c2ccc3[nH]nc(/C=C/c4ccccn4)c3c2)c1 [DYX-119, (E)-5-(3,5-difluorophenyl)-3-(2-(pyridin-2-yl)vinyl)-1H-indazole]
- IC50 (TRKA): 0.648 µM
- IC50 (TRKB): > 1 µM
- IC50 (TRKC): 0.226 µM
- IC50 (BaF3-CD74-NTRK1): > 10 µM
- IC50 (BaF3-ETV6-NTRK2): > 10 µM
- IC50 (BaF3-ETV6-NTRK3): > 10 µM

SMILES: Fc1cc(F)cc(Nc2ccc3[nH]nc(C#Cc4ccccn4)c3c2)c1 [DYX-129, N-(3,5-difluorophenyl)-3-(pyridin-2-ylethynyl)-1H-indazol-5-amine]
- IC50 (TRKA): > 1 µM
- IC50 (TRKB): > 1 µM
- IC50 (TRKC): 0.575 µM
- IC50 (BaF3-CD74-NTRK1): 9.98 µM
- IC50 (BaF3-ETV6-NTRK2): 2.8 µM
- IC50 (BaF3-ETV6-NTRK3): 3.15 µM

SMILES: CN(c1cc(F)cc(F)c1)c1ccc2[nH]nc(C#Cc3ccccn3)c2c1 [DYX-130, N-(3,5-difluorophenyl)-N-methyl-3-(pyridin-2-ylethynyl)-1H-indazol-5-amine]
- IC50 (TRKA): 0.319 µM
- IC50 (TRKB): 0.993 µM
- IC50 (TRKC): 0.235 µM
- IC50 (BaF3-CD74-NTRK1): 3.81 µM
- IC50 (BaF3-ETV6-NTRK2): 9.84 µM
- IC50 (BaF3-ETV6-NTRK3): 3.09 µM

SMILES: Fc1cc(F)cc(COc2ccc3[nH]nc(C#Cc4ccccn4)c3c2)c1 [DYX-131, 5-((3,5-difluorobenzyl)oxo)-3-(pyridin-2-ylethynyl)-1H-indazole]
- IC50 (TRKA): 0.0313 µM
- IC50 (TRKB): 0.0713 µM
- IC50 (TRKC): 0.02 µM
- IC50 (BaF3-CD74-NTRK1): 2.9 µM
- IC50 (BaF3-ETV6-NTRK2): 1.61 µM
- IC50 (BaF3-ETV6-NTRK3): 2.21 µM

SMILES: Fc1cc(F)cc(COc2ccc3[nH]nc(/C=C/c4ccccn4)c3c2)c1 [DYX-132, (E)-5-((3,5-difluorobenzyl)oxo)-3-(2-(pyridin-2-yl)vinyl)-1H-indazole]
- IC50 (TRKA): 0.0033 µM
- IC50 (TRKB): 0.0098 µM
- IC50 (TRKC): 0.003 µM
- IC50 (BaF3-CD74-NTRK1): 0.156 µM
- IC50 (BaF3-ETV6-NTRK2): 0.178 µM
- IC50 (BaF3-ETV6-NTRK3): 0.0962 µM

SMILES: Clc1cccc(Cc2ccc3[nH]nc(C#Cc4ccccn4)c3c2)c1 [DYX-134Q, 5-(3-chlorobenzyl)-3-(pyridin-2-ylethynyl)-1H-indazole]
- IC50 (TRKA): 0.0919 µM
- IC50 (TRKB): 0.124 µM
- IC50 (TRKC): 0.0403 µM
- IC50 (BaF3-CD74-NTRK1): > 10 µM
- IC50 (BaF3-ETV6-NTRK2): 4.62 µM
- IC50 (BaF3-ETV6-NTRK3): 2.65 µM

SMILES: Clc1cccc(Cc2ccc3[nH]nc(/C=C/c4ccccn4)c3c2)c1 [DYX-134X, (E)-5-(3-chlorobenzyl)-3-(2-(pyridin-2-yl)vinyl)-1H-indazole]
- IC50 (TRKA): 0.0709 µM
- IC50 (TRKB): 0.211 µM
- IC50 (TRKC): 0.0283 µM
- IC50 (BaF3-CD74-NTRK1): 2.36 µM
- IC50 (BaF3-ETV6-NTRK2): 1.88 µM
- IC50 (BaF3-ETV6-NTRK3): 0.846 µM

SMILES: COc1cccc(Cc2ccc3[nH]nc(C#Cc4ccccn4)c3c2)c1 [DYX-135Q, 5-(3-methoxybenzyl)-3-(pyridin-2-ylethynyl)-1H-indazole]
- IC50 (TRKA): 0.292 µM
- IC50 (TRKB): 0.817 µM
- IC50 (TRKC): 0.211 µM
- IC50 (BaF3-CD74-NTRK1): > 10 µM
- IC50 (BaF3-ETV6-NTRK2): > 10 µM
- IC50 (BaF3-ETV6-NTRK3): > 10 µM

SMILES: COc1cccc(Cc2ccc3[nH]nc(/C=C/c4ccccn4)c3c2)c1 [DYX-135X, (E)-5-(3-methoxybenzyl)-3-(2-(pyridin-2-yl)vinyl)-1H-indazole]
- IC50 (TRKA): 0.0494 µM
- IC50 (TRKB): 0.0705 µM
- IC50 (TRKC): 0.0225 µM
- IC50 (BaF3-CD74-NTRK1): 2.99 µM
- IC50 (BaF3-ETV6-NTRK2): 2.98 µM
- IC50 (BaF3-ETV6-NTRK3): 2.4 µM

SMILES: N#Cc1cccc(Cc2ccc3[nH]nc(/C=C/c4ccccn4)c3c2)c1 [DYX-136X, (E)-3-((3-(2-(pyridin-2-yl)vinyl)-1H-indazol-5-yl)methyl)benzonitrile]
- IC50 (TRKA): 0.0048 µM
- IC50 (TRKB): 0.091 µM
- IC50 (TRKC): 0.0058 µM
- IC50 (BaF3-CD74-NTRK1): 0.603 µM
- IC50 (BaF3-ETV6-NTRK2): 1.07 µM
- IC50 (BaF3-ETV6-NTRK3): 0.733 µM

SMILES: Cc1cccc(Cc2ccc3[nH]nc(C#Cc4ccccn4)c3c2)c1 [DYX-137Q, 5-(3-methylbenzyl)-3-(pyridin-2-ylethynyl)-1H-indazole]
- IC50 (TRKA): 0.213 µM
- IC50 (TRKB): 0.397 µM
- IC50 (TRKC): 0.0911 µM
- IC50 (BaF3-CD74-NTRK1): > 10 µM
- IC50 (BaF3-ETV6-NTRK2): > 10 µM
- IC50 (BaF3-ETV6-NTRK3): > 10 µM

Source: patent US20220281821A1, “INDAZOLE COMPOUNDS AND THEIR PHARMACEUTICAL COMPOSITIONS” (Jinan University, priority 2019, published 2022)
